From patent US8530406B2, “HMG-CoA reductase derived peptide and cosmetic or pharmaceutical composition containing same” (ISP Investments Inc., priority 2008, dated 2013)
No end group written: not given here.

Assays:
Type in all cases: cell-based
[1] = system: normal human dermal fibroblasts; experiment: Ultrastructural study of caveolae in human fibroblasts; conditions: 0.5 ppm peptide, 48 hours
Experimental: The goal of this study is to study at the ultrastructural level the caveolae in human dermal fibroblasts.
Normal human dermal fibroblasts in culture are treated with a 1% stock solution at 50 ppm of peptide SEQ ID No. 4 for 48 hours (the medium in the presence of the active ingredient is changed every 24 hours).

HMG-CoA reductase [2] = experiment: Expression of HMG-CoA reductase in normal human keratinocytes (immunofluorescence); conditions: 0.5 ppm peptide, 48 hours
Experimental: The goal of this study is to determine the influence of peptide SEQ ID No. 4 on the expression of HMG-CoA reductase in normal human keratinocytes.
Normal human dermal keratinocytes in culture are treated with a 1% stock solution at 50 ppm of peptide SEQ ID No. 4 for 48 hours (the medium in the presence of the active ingredient is changed every 24 hours). The cells are then washed and fixed in cold methanol for 4 minutes at 4° C. The cells are incubated in the presence of a polyclonal rabbit antibody specific for HMG-CoA reductase (Millipore, Upstate), and then a secondary antibody coupled with a fluorescent dye. The cells are then examined by epifluorescence microscope (Nikon Eclipse E600 microscope).

[3] = system: normal human keratinocytes; experiment: Ultrastructural study (transmission electron microscopy) of lamellar bodies in human keratinocytes; conditions: 0.5 ppm peptide
Experimental: The goal of this study is to study in an ultrastructural manner, in transmission electron microscopy, keratinocytes treated by peptide SEQ ID No. 5 at 0.5 ppm.
Normal human keratinocytes in culture are treated with a 1% stock solution at 50 ppm of peptide SEQ ID No. 5 for 48 hours (the medium in the presence of the active ingredient is changed every 24 hours). The cells are washed in PBS, and then are fixed by Karnosky hypertonic fixation (4% paraformaldehyde, 5% glutaraldehyde in a 0.08M phosphate buffer) 1 hour at ambient temperature and then 24 hours at 4° C. The cells are detached from the support by scraping and centrifuged 5 minutes at 1000 rpm. The supernatant is eliminated and a 1M sodium cacodylate buffer is deposited on the residue. The cells are mixed with 2% agar and then postfixed by osmium tetraoxide for 1 hour. The specimens are then dehydrated by successive passages in a series of alcohol (from 50 to 100%). The cells are then coated in a resin. The polymerization is carried out for approximately 12 hours at 60° C. Semi-thin sections of 0.5 μm are made with an ultramicrotome. The sections are deposited on a heat bonded slide and then colored with toluidine blue. The slides are then dehydrated again and mounted in a suitable medium. After having chosen the optimal study zone, the block is recut to the desired size and ultrathin sections are then made, only sections with a silver-grey color and a suitable size are mounted on the electron microscopy grid labeled with both uranyl acetate and lead citrate, and are examined by transmission electron microscope at 60 or 80 KV.

[4] = system: normal human keratinocytes; experiment: Differentiation study of human keratinocytes (pankeratin immunofluorescence); conditions: 0.5 ppm peptide, 48 hours, epifluorescence
Experimental: The goal of this study is to determine the influence of peptide SEQ ID No. 5 on epidermal differentiation.
Normal human keratinocytes in culture are treated with a 1% stock solution at 50 ppm of peptide SEQ ID No. 4 for 48 hours (the medium in the presence of the active ingredient is changed every 24 hours). The cells are then washed and fixed with cold methanol for 4 minutes at 4° C.

HMG-CoA reductase [5] = experiment: Expression of HMG-CoA reductase in skin biopsies (immunolabelling); conditions: 0.5 ppm peptide applied topically, human skin samples in culture, 24 hours or 48 hours
Experimental: The goal of this study is to determine the influence of peptide SEQ ID No. 5 on the expression of HMG-CoA reductase.
Samples of human skin are placed in culture at the air/liquid interface. A 1% stock solution at 50 ppm of peptide SEQ ID No. 5 is applied topically and then the samples are incubated for 24 hours or 48 hours.
These skin samples are then fixed with formaldehyde and then enclosed in paraffin. Sections of 2 to 3 μm are then made Immunolabelling is carried out after unmasking the specific sites by microwave treatment and then incubation in trypsin Immunolabelling is carried out by using a polyclonal rabbit antibody specific for HMG-CoA reductase (Millipore, Upstate), and then a secondary antibody, coupled with a fluorescent dye. The skin sections are then examined by epifluorescence microscope (Nikon Eclipse E600 microscope).

[6] = 48 hours, transmission electron microscopy

Substance	caveolae versus untreated control cells [1]	HMG-CoA reductase cytoplasmic fluorescence (HMG-CoA reductase [2])	Golgi complex development versus control cells [3, 6]	production of lamellar bodies (Odland bodies) [3, 6]	lipid synthesis ([3]; inferred from ultrastructure)	expression of pankeratins [4]	HMG-CoA reductase fluorescence in the upper layers of the epidermis versus untreated control (HMG-CoA reductase [5])
Ala-Gly-Glu-Leu-Ser (AGELS) [SEQ ID No. 4]	significant increase in caveolae	more intense cytoplasmic fluorescence					
Ala-Gly-Glu-Leu-Ser-NH2 (AGELS-NH2) [SEQ ID No. 5]			substantially more developed	excess production of lamellar bodies	increase in lipid synthesis	increases the expression of pankeratins	stronger fluorescence
